Measured values reported in the Deep4Chem optical property database.

Test: photoluminescence quantum yield (fraction); solvent given as SMILES

Q: With `CC1(C)c2ccccc2N(c2ccccc2)c2ccc(-c3nc(-c4ccccc4)nc(-c4ccccc4)n3)cc21` as the compound, how does the photoluminescence quantum yield (in O=P(c1ccccc1)(c1ccccc1)c1ccccc1Oc1ccccc1P(=O)(c1ccccc1)c1ccccc1) read?
A: 0.55

Q: With `CSc1ccc(C#Cc2ccc(C#Cc3ccc(C#Cc4ccccc4C#N)cc3C#N)cc2C#N)cc1` as the compound, how does the photoluminescence quantum yield (in ClC(Cl)Cl) read?
A: 0.972

Q: For `CCCCCCCC[n+]1ccc(-c2cc[n+](CCCCCCCC)cc2)cc1`, which photoluminescence quantum yield (in CC#N) is on record?
A: 0.009

Q: With `c1ccc(C2=C(c3ccccn3)[Si](c3ccccc3)(c3ccccc3)c3ccccc32)cc1` as the compound, how does the photoluminescence quantum yield (in ClCCl) read?
A: 0.004

Q: Which photoluminescence quantum yield (in CCOC(C)=O) does the source give for `O=Cc1cc2c(cc3ccc4cccc5ccc2c3c45)[nH]1` here?
A: 0.61

Q: For `N#Cc1c(N2c3ccccc3C(c3ccccc3)(c3ccccc3)c3ccccc32)cccc1N1c2ccccc2C(c2ccccc2)(c2ccccc2)c2ccccc21`, which photoluminescence quantum yield (in Cc1ccccc1) is on record?
A: 0.67

Q: For `CC(=O)Nc1ccc2ccc3cccc4ccc1c2c34`, which photoluminescence quantum yield (in CC#N) is on record?
A: 0.23

Q: And the photoluminescence quantum yield (in CCCCOCCCC)?
A: 0.27

Q: And the photoluminescence quantum yield (in CO)?
A: 0.13

Q: With `CCCCCCN1C(=O)c2cccc3c(-c4ccc(Cl)s4)ccc(c23)C1=O` as the compound, how does the photoluminescence quantum yield (in ClC(Cl)Cl) read?
A: 0.18

Q: Which photoluminescence quantum yield (in ClCCl) does the source give for `COc1cc(/C=C/c2nc(N3CCOCC3)c3c([n+]2[O-])CCCC3)cc(OC)c1OC` here?
A: 0.23

Q: For `CCN1C(=O)C(C2C(=O)c3c4ccccc4cc4cc5ccccc5c2c34)C(=O)N(CC)C1=S` (centres undefined), which photoluminescence quantum yield (in C1CCOC1) is on record?
A: 0.205

Q: And the photoluminescence quantum yield (in CCCCCC)?
A: 0.316

Q: And the photoluminescence quantum yield (in Cc1ccccc1)?
A: 0.052

Q: What about the photoluminescence quantum yield (in ClCCl) of the same compound?
A: 0.237

Q: For `C[N+]1=C(/C=C/C=C2/N(CCCS(=O)(=O)[O-])c3ccccc3C2(C)C)C(C)(C)c2ccccc21`, which photoluminescence quantum yield (in CS(C)=O) is on record?
A: 0.1

Q: With `N#Cc1nc(N(Cc2ccccc2F)Cc2ccccc2F)c(C#N)nc1N(Cc1ccccc1F)Cc1ccccc1F` as the compound, how does the photoluminescence quantum yield (in ClC(Cl)Cl) read?
A: 0.79

Q: What does the source list for `COCCOCCOCCN1C(=O)c2cc(NCCOCCO)c3c4c(cc(NCCOCCO)c(c24)C1=O)C(=O)N(CCOCCOCCOC)C3=O`?
A: photoluminescence quantum yield (in CO): 0.37; photoluminescence quantum yield (in ClC(Cl)Cl): 0.56; photoluminescence quantum yield (in O): 0.031

Q: With `Cc1cc(-c2cccc3ccccc23)cc(C)[o+]1` as the compound, how does the photoluminescence quantum yield (in ClCCl) read?
A: 0.22

Q: For `CCCCc1ccc2ccc3cccc4ccc1c2c34`, which photoluminescence quantum yield (in CCCCCC) is on record?
A: 0.35

Q: What about the photoluminescence quantum yield (in CO) of the same compound?
A: 0.31

Q: And the photoluminescence quantum yield (in ClCCl)?
A: 0.41

Q: With `COC(=O)c1cc(=O)n(C)c2cc(-c3cccc(N(C)C)c3)sc12` as the compound, how does the photoluminescence quantum yield (in CC#N) read?
A: 0.03

Q: What about the photoluminescence quantum yield (in ClCCl) of the same compound?
A: 0.01

Q: Which photoluminescence quantum yield (in CC#N) does the source give for `CCOC(=O)c1c2c3c(ccc(F)c3c3cc4ccccc4cc13)N(C)C2=O` here?
A: 0.41

Q: Which results are given for `COc1cc(/C=C/c2nc3ccccc3o2)c(OC)cc1/C=C/c1nc(C)nc(C)n1`?
A: photoluminescence quantum yield (in C1CCOC1): 0.89; photoluminescence quantum yield (in CC#N): 0.85; photoluminescence quantum yield (in ClC(Cl)Cl): 0.86; photoluminescence quantum yield (in ClCCl): 0.86

Q: Which photoluminescence quantum yield (in ClC(Cl)Cl) does the source give for `F[B-]1(F)OC(c2cccc(Br)c2)=Cc2c3ccccc3c3ccccc3[n+]21` here?
A: 0.106

Q: With `CCN(CC)c1ccc2cc(C#N)/c(=N\C(=O)C(C)C)oc2c1` as the compound, how does the photoluminescence quantum yield (in CCO) read?
A: 0.047

Q: What about the photoluminescence quantum yield (in ClCCl) of the same compound?
A: 0.83

Q: For `COc1cc(OC)cc(-c2ccc(C3=CC(c4ccccc4)=C(c4ccccc4)C3)cc2)c1`, which photoluminescence quantum yield (in ClCCl) is on record?
A: 0.0575

Q: With `CC1(C)CCc2c(c3ccccc3c3nc4ccccc4nc23)O1` as the compound, how does the photoluminescence quantum yield (in C1CCCCC1) read?
A: 0.05

Q: And the photoluminescence quantum yield (in C1CCOC1)?
A: 0.1

Q: And the photoluminescence quantum yield (in CN(C)C=O)?
A: 0.13

Q: And the photoluminescence quantum yield (in CO)?
A: 0.23

Q: What about the photoluminescence quantum yield (in ClC(Cl)Cl) of the same compound?
A: 0.17

Q: And the photoluminescence quantum yield (in c1ccccc1)?
A: 0.12

Q: For `CN1/C(=C/C=C(/C=C/c2sc3ccccc3[n+]2C)c2ccccc2)Sc2ccccc21`, which photoluminescence quantum yield (in CCO) is on record?
A: 0.06

Q: And the photoluminescence quantum yield (in CO)?
A: 0.07

Q: What about the photoluminescence quantum yield (in CS(C)=O) of the same compound?
A: 0.24

Q: Which photoluminescence quantum yield (in ClCCl) does the source give for `COc1ccc(/C=C/c2nc(N3CCOCC3)c3c([n+]2[O-])CCCC3)cc1` here?
A: 0.12

Q: With `Cc1cc(=O)oc2cc3c4ccc(C(C)(C)C)cc4c4cc(C(C)(C)C)ccc4c3cc12` as the compound, how does the photoluminescence quantum yield (in ClC(Cl)Cl) read?
A: 0.14

Q: Which photoluminescence quantum yield (in CCCCCCC) does the source give for `c1cc2c3c(cccc3c1)-c1c-2ccc2ccc3ccccc3c12` here?
A: 0.14

Q: With `CC(C)(C)c1ccc(-c2c(-c3ccc(-n4c5ccccc5c5ccccc54)cc3)cc(-c3ccc(-n4c5ccccc5c5ccccc54)cc3)c(-c3ccc(C(C)(C)C)cc3)c2-c2ccc(C(C)(C)C)cc2)cc1` as the compound, how does the photoluminescence quantum yield (in C1CCOC1) read?
A: 0.343

Q: With `Cc1cccc(C2=Cc3c4ccccc4c4ccccc4[n+]3[B-](F)(F)O2)c1` as the compound, how does the photoluminescence quantum yield (in ClC(Cl)Cl) read?
A: 0.188
